PMC10693528, “A high-throughput metabolomics in vitro platform for the characterization of hepatotoxicity” (Cell Biology and Toxicology, 2023)
Where “and” joins values, the source holds several entries; their conditions need not be identical. Identical values can stand only once.

Experiments:
HepG2 cells [1] = assay: LC-MS/MS targeted intracellular metabolomics; format: cell-based, human; settings: Suppl Fig 9; C3 (EC15 ATP), 48 h; Bezafibrate lines = Plates 1-6 in order
Method: Metabolite profiling of cells was performed directly in the same 96-well plate according to a standardized protocol described below. In order to prevent any interaction with the cell material, the automatic sampler was adjusted to pick up the sample from the supernatant at a specified depth avoiding the contact with the bottom of the plate.
After the initial quenching step (50 μL isopropanol 80%), additional 70 μL of isopropanol 80%, containing internal standards (methionine-D3, tryptophan-D5, arginine-13C6-15N4, Boc-Ala-Gly-Gly-Gly-OH, coenzyme Q1, coenzyme Q2, coenzyme Q4) were added to each well. The internal standards were used for quality control by visual inspection (signal intensity, peak shape, retention time); they were not used for normalization. Afterwards, plates were shaken for 5 min, 750 rpm at 20 °C, and placed for 30 s in the ultrasonic device. Then, the plates were centrifugated for 10 min, at 5485 g, 15 °C. Further, 2.5 μL of the extract were injected each for reversed-phase and hydrophilic interaction liquid chromatography followed by MS/MS detection (AB Sciex QTrap 6500+) using the positive and negative ionization mode. For reverse-phase high-performance liquid chromatography (RP-HPLC, Ascentis Express C18, 5 cm × 2.1 mm, 2.7 μm Supelco), gradient elution was performed with mobile phase A, water/methanol/0.1 M ammonium formate (1:1:0.02, w/w), and B, methyl-tert-butylether/2-propanol/methanol/0.1 M ammonium formate/formic acid (4:2:1:0.07:0.035, w/w) 5.9 min linear gradient: 0 min 100% A, 0.5 min 75% A, 5.9 min 10% A; followed by 0% A until 6.7 min; re-equilibration at 100% A until 7.7 min; flow rate 600 μL/min; column temperature 40 °C HILIC (ZIC-HILIC, 2.1 × 100 mm, 3.5 μm, Supelco) gradient elution was performed with mobile phase C, acetonitrile/water (99:1, v/v) with 0.2% (v) acetic acid, and D, 7 mM ammonium acetate with 0.2% (v) acetic acid (5.0 min linear gradient: 0 min 100% C, 5 min 10% C; followed by a linear gradient back to 100%C until 6.5 min; re-equilibration at 100% C until 7.5 min; flow rate 600 μL/min; column temperature 40 °C.). Two LC-MS systems with identical configuration were used for the analysis. Normalization to lyophilized reference samples (see below) was used to compensate for variation from between analytical batches. The efficiency of this normalization procedure was checked by principal component analysis (PCA), confirming that Pool samples from different analytical batches clustered together.
Reference samples derived from lyophilized untreated HepG2 cells (technical control samples) were measured in parallel throughout the entire analytical process. Data were normalized against the median of these lyophilized HepG2 cells reference samples, to give normalized ratios (performed for each sample per metabolite). This compensated for inter- and intra-instrumental variation. To correct for small differences in cell numbers within and between different treatment groups, data were also normalized to the within sample median, as described in detail by (Ramirez et al. [2018]). For intracellular metabolomic analysis, the median of each sample was calculated across all the 221 measured metabolites.
To generate metabolic profiles for the different treatments, heteroscedastic t test (Welch test) was applied to log-transformed normalized metabolite data to compare treated groups with their respective controls.
Principal component analysis (PCA) and hierarchical clustering (HCA) analyses were performed using R software environment (https://www.r-project.org/). PCA was conducted using the ropls package (Thévenot et al. [2015]) with log10-transformed input data and standard scaling. HCA was performed using the pvclust package (Suzuki et al. [2019]), (https://CRAN.R-project.org/package=pvclust). Input: log10(Ratio), clustering method: Ward D2, distance method: Manhattan, bootstrapping: 10000 times.

[2] = Cell viability (ATP, CellTiter-Glo) in parallel with metabolomics experiments; settings: human, HepG2 cells, Percentage of viability (ATP) compared to the vehicle control, Bezafibrate positive control, Bezafibrate 1000 μM, 48 h, one value per experiment plate, n = 6
Method: (§1) HepG2 cells (ECACC, UK, maximum passage number 9) were maintained and grown on Dulbecco’s MEM media supplemented with 1% v/v of penicillin/streptomycin, L-glutamine (200 mM, 1% v/v), non-essential amino acids (100x, 1% v/v), and 10% FBS (PAN-Biotech, Aidenbach, Germany) in 75 cm^2 culture flasks (TPP, Switzerland). For cell passaging (~ 80% confluency) media was removed and cells were washed twice with pre-warmed calcium and magnesium free Dulbecco’s PBS (PAN-Biotech, Aidenbach, Germany). Trypsin was used for cell detachment. Then, 20 mL culture medium was added, and single-cell suspensions were obtained by passing the suspension through a Combitip (Eppendorf, Germany). A fraction of the cell suspension was then transferred to a new culture vessel. For experiments, 15,000 cells per well (passage 5-9) were seeded in 96-well flat-bottom plates (TPP, Switzerland) and incubated for 24 h for cell attachment (37 °C and 5% CO^2). Afterwards, culture media were exchanged, test substances applied, and plates incubated for 48 h (37 °C and 5% CO^2).
(§2) For each substance, one 96-well plate was set up with 6 replicates per concentration, 12 replicates for vehicle controls (yielding a final concentration of 0.5% DMSO in the well), 6 replicates for positive controls (Bezafibrate 1000 μM), and 6 replicates for blank controls (media without cells). To minimize potential evaporation, the outer rows and columns of the plate were omitted and filled with PBS instead. Reference samples prepared from lyophilized HepG2 cells were measured in parallel throughout the entire analytical process (technical replicates). […] Lyophilized HepG2 cells reference samples were used to account for variability between plates and in concentration series for linearity checks. After 48 h, the assays were stopped by washing the wells once with 100 μL 0.9% NaCl followed by snap freezing the plates on liquid nitrogen for 5 s. Plates were placed immediately on dry ice and 50 μL ice-cooled isopropanol 80% (v/v) were added to quench metabolism and precipitate proteins. Plates were stored at − 80 °C until LC/ MS analysis.

HepG2 cells [3] = assay: as above; settings: Bezafibrate 1000 μM, 48 h, one value per experiment plate, n = 6
Method: as §1, §2

## CC(C)(Oc1ccc(CCNC(=O)c2ccc(Cl)cc2)cc1)C(=O)O [Bezafibrate]
HepG2 cells [1]
  5-Hydroxytryptophan level vs controls: 0.84 and 0.77 and 0.76 and 0.85 and 0.74 and 0.65
  Carnitine level vs controls: 0.72 and 0.74 and 0.84 and 0.77 and 0.80
  Ceramide (d18:1.C20:0) level vs controls: 0.63 and 0.66 and 0.56 and 0.62 and 0.64 and 0.59
  Ceramide (d18:1.C24:1) level vs controls: 0.66 and 0.91 and 0.98 and 0.80 and 0.85 and 0.68
  Ceramide (d18:1.C24:2) level vs controls: 0.83 and 1.08 and 1.11 and 0.89 and 0.90 and 0.91
  Ceramide (d18:2.C24:1) level vs controls: 0.56 and 0.62 and 0.68 and 0.89 and 0.63
  Choline plasmalogen (C36:4) level vs controls: 0.65 and 0.80 and 0.68 and 0.69 and 0.73 and 0.72
  Choline plasmalogen (C36:5) level vs controls: 0.78 and 0.90 and 0.80 and 0.83 and 0.82 and 0.79
  Creatine level vs controls: 0.80 and 0.82 and 0.73 and 0.78 and 0.67 and 0.66
  Glycerol-3-phosphate level vs controls: 0.68 and 0.43 and 0.45 and 0.54 and 0.44 and 0.39
  Hexanoylcarnitine level vs controls: 0.65 and 0.54 and 0.50 and 0.59 and 0.62
  Ketoleucine level vs controls: 0.73 and 0.72 and 0.74 and 0.77 and 1.10
  Lysophosphatidylcholine (C14:0) level vs controls: 2.27 and 1.82 and 2.09 and 1.97 and 1.85 and 1.87
  Lysophosphatidylcholine (C16:0) level vs controls: 1.86 and 1.92 and 1.98 and 2.08 and 1.93 and 2.14
  Lysophosphatidylcholine (C16:1) level vs controls: 1.95 and 2.13 and 2.01 and 2.17 and 1.86 and 1.72
  Lysophosphatidylcholine (C20:4) level vs controls: 1.22 and 1.67 and 1.47 and 1.90 and 1.86 and 1.44
  Lysophosphatidylcholine (C24:0) level vs controls: 1.01 and 1.18 and 1.11 and 1.20 and 1.21 and 1.29
  Lysophosphatidylcholine (C24:1) level vs controls: 1.10 and 1.03 and 1.13 and 1.26 and 1.12
  Lysophosphatidylethanolamine (C16:0) level vs controls: 2.47 and 2.37 and 2.23 and 2.12 and 2.10 and 2.19
  Lysophosphatidylethanolamine (C18:0) level vs controls: 2.21 and 2.07 and 1.76 and 1.77 and 2.04
  Lysophosphatidylethanolamine (C18:1) level vs controls: 2.45 and 2.31 and 1.97 and 2.19 and 2.11 and 2.16
  N-Acetylaspartate level vs controls: 1.54 and 1.49 and 1.66 and 1.48 and 1.41 and 1.25
  Pantothenic acid level vs controls: 0.68 and 0.77 and 0.59 and 0.72 and 0.70 and 0.76
  Phosphatidylcholine (C32:0) level vs controls: 0.82 and 0.70 and 0.79 and 0.88 and 0.83 and 0.76
  Phosphatidylcholine (C34:1) level vs controls: 0.83 and 0.75 and 0.78 and 0.82 and 0.74
  Phosphatidylcholine (C34:3) level vs controls: 1.02 and 1.18 and 1.17 and 1.09 and 1.15 and 1.04
  Phosphatidylcholine (C36:1) level vs controls: 0.86 and 0.88 and 0.73 and 0.84 and 0.79 and 0.90
  Phosphatidylcholine (C36:2) level vs controls: 0.66 and 0.71 and 0.62 and 0.69 and 0.65
  Phosphatidylcholine (C36:3) level vs controls: 0.90 and 1.03 and 0.84 and 0.96 and 0.97 and 0.89
  Phosphatidylcholine (C36:4) level vs controls: 1.00 and 0.93 and 0.81 and 0.98 and 0.95 and 0.94
  Phosphatidylcholine (C36:5) level vs controls: 0.78 and 0.81 and 0.63 and 0.76 and 0.72 and 0.75
  Phosphatidylethanolamine (C36:3) level vs controls: 0.90 and 0.87 and 0.84
  Phosphatidylethanolamine (C38:3) level vs controls: 0.72 and 0.70 and 0.64 and 0.75 and 0.68 and 0.66
  Phosphatidylethanolamine (C38:5) level vs controls: 0.90 and 1.00 and 0.86 and 0.98 and 0.87
  Phosphatidylethanolamine (C38:6) level vs controls: 0.92 and 0.91 and 0.95 and 1.01 and 0.98
  Phosphatidylethanolamine (C40:7) level vs controls: 0.79 and 0.81 and 0.75 and 0.88 and 0.82
  Phosphocholine level vs controls: 0.78 and 0.69 and 0.56 and 0.63
  Propionylcarnitine level vs controls: 0.66 and 0.78 and 0.40 and 0.58 and 0.54 and 0.57
  S-Adenosylhomocysteine level vs controls: 0.92 and 0.98 and 0.70 and 0.93 and 0.78 and 0.79
  Sphingomyelin (d32:2) level vs controls: 0.49 and 0.71 and 0.69 and 0.75 and 0.59 and 0.78
  Sphingomyelin (d33:1) level vs controls: 1.19 and 1.34 and 1.15 and 1.32 and 1.18 and 1.20
  Sphingomyelin (d34:0) level vs controls: 0.96 and 1.09 and 1.25 and 1.15 and 1.11
  Sphingomyelin (d35:1) level vs controls: 0.86 and 0.95 and 0.88 and 0.85 and 0.92
  Sphingomyelin (d36:1) level vs controls: 0.86 and 0.96 and 0.90 and 0.82 and 0.84
  Sphingomyelin (d36:2) level vs controls: 0.73 and 0.90 and 0.85 and 0.87 and 0.88
  Sphingomyelin (d37:1) level vs controls: 0.70 and 0.80 and 0.79 and 0.76
  Sphingomyelin (d38:1) level vs controls: 0.88 and 0.84 and 0.85 and 0.87 and 0.91
  Sphingomyelin (d38:2) level vs controls: 0.61 and 0.66 and 0.64 and 0.67 and 0.71
  Sphingomyelin (d39:1) level vs controls: 0.77 and 0.83 and 0.87 and 0.81 and 0.86
  Sphingomyelin (d40:2) level vs controls: 0.73 and 0.83 and 0.81 and 0.87 and 0.78 and 0.84
  Sphingomyelin (d41:2) level vs controls: 0.78 and 0.79 and 0.82 and 0.88 and 0.77 and 0.80
  Sphingomyelin (d42:2) level vs controls: 0.86 and 0.95 and 0.81 and 0.98 and 0.89 and 0.91
  Taurine level vs controls: 0.93 and 0.92 and 0.68 and 0.90 and 0.88
  Triacylglycerol (C34:1.C18:3) level vs controls: 1.57 and 2.06 and 2.37 and 1.58 and 1.93 and 2.00
  Triacylglycerol (C34:2.C18:0) level vs controls: 1.63 and 1.54 and 1.78 and 1.17 and 1.31 and 1.39
  Triacylglycerol (C34:2.C18:1) level vs controls: 1.40 and 1.62 and 1.81 and 1.26 and 1.79 and 1.43
  Triacylglycerol (C36:4.C16:0) level vs controls: 1.74 and 2.34 and 2.73 and 1.73 and 1.97 and 2.11
  Triacylglycerol (C36:4.C18:0) level vs controls: 1.72 and 1.82 and 2.28 and 2.15 and 2.38 and 2.26
[2]
  viability at 48 h, 1000 μM: 71 to 84%
HepG2 cells [3]
  Percentage of viability (ATP) compared to the vehicle control, Bezafibrate positive control: 84.1 ± 2.3% and 76.3 ± 3.2% and 75.0 ± 1.5% and 71.8 ± 2.8% and 78.0 ± 0.7% and 79.3 ± 2.2%
